Laboratory results from patent US20110269812A1, “NOVEL BENZYLIDENE-INDOLINONE AND THEIR MEDICAL AND DIAGNOSTIC USES” (Agency for Science, Technology and Research, priority 2008, published 2011).
Read-outs that look alike come from different tables or passages of the source.

Key:
HCT116 cells = experiment: Cell cycle of synchronized HCT116 cells by flow cytometry (FACS); format: cell-based, human; conditions: for Proportion of cells in G1 / Proportion of cells in G2/M / Proportion of cells in S / Proportion of cells in Sub-G1: 24 h; for type of cell cycle arrest caused: HCT116 cells, ≈1.5 × IC50, 24 h
Procedure: HCT116 cells were grown to confluence and maintained in this state for at least 5 days without change of media. The serum starved cells were then trypsinized and subcultured at densities of 5×10^5 cells/well in six-well plates. Growth media contained 10% fetal calf serum. The test compound was added either immediately to cells synchronized at G1 phase, or 24 h later when cells were synchronized at G2 phase. The cells were incubated with test compound for 24 h from the time of addition. After this time, the cells were harvested, trypsinized and fixed in 70% ice-cold ethanol for a minimum of 24 h. After centrifugation, the supernatant was discarded and the pellet was treated with RNase A (200 μg/ml) for 30 min at room temperature, followed by cell staining using propidium iodide at a final concentration of 20 μg/ml. The stained cells were then analyzed for cell cycle distribution in the sub-G1, G1, S and G2/M phases on a Dako Cytomation Cyan LX (Dako Colorado, Fort Collins, Colo., USA) equipped with an argon solid state laser (488 nm) using the Summit (version 4.3) software. Compounds were tested at a concentration of ≈1.5×IC50, with IC50 determined by the MTT assay on HCT116 cells.
To have a better understanding of the mechanisms underlying the antiproliferative activities of the compounds listed in Table 5, their effects on the cell cycle was investigated by fluorescence-activated cell sorter (FACS) analysis using flow cytometry. The experiments were designed to examine the effects of the test compounds on synchronized cell populations at the GI or G2/M phase. G1 synchronized cells were obtained by growing cells to confluence for up to 5 days and then stimulating their re-entry into the cell cycle by sub-culturing at lower densities. After 24 hours of growth, these cells would be aligned at the G2/M phase.
Cells aligned at the G2/M phase were similarly treated.

NQO1 = experiment: Induction of NQO1 (QR) activity in Hepa1c1c7 cells
Hepa1c1c7 cells = experiment: MTT growth inhibition / cytotoxicity on Hepa1c1c7 cells; format: cell-based, murine; conditions: Mus musculus, Hepa-1c1c7, 48 h, highest concentration tested 25 μM
Procedure: (§1) The antiproliferative activity of the compounds according to the invention was determined by the MTT assay on the following cell lines: MCF7 (human breast cancer cell line), HCT116 (human colon cancer cell line), and CCL186 (normal human diploid embryonic lung fibroblast). […] MCF7 and CCL186 cells were cultured in Eagle's Minimum Essential Medium (EMEM) with 1 mM sodium pyruvate, 1.5 g/L sodium bicarbonate, 2 mM L-glutamine supplemented with 10% FBS and 0.01% antibiotics. HCT116 cells were cultured in McCoy's 5A Medium with 2.2 g/L sodium bicarbonate supplemented with […] and 0.01% antibiotics. Cells were plated at the following densities: 10000 cells/well (MCF7), 4000 cells/well (HCT116), 5000 cells/well (CCL186). They were grown for 24 h in a 96-well plate, with 100 μl of corresponding medium in each well. The test compounds were prepared in DMSO and diluted to a series of concentrations with medium. Not more than 1% DMSO (final concentration) was present in each well. The test compounds were incubated with the cells for 72 h, after which 100 μl MTT solution (0.5 mg/ml in 1× PBS) was added for 3 h and the cells lysed to release the formazan product. The latter was dissolved in DMSO (150 μl) and absorbance determined within 30 min at 590 nm on a microtitre plate reader. Cell survival was given by the expression:
(§2) Cell survival (%)=[(Acells+test compound−Ablank)/(Auntreated cells−Ablank)]×100
(§3) where A is the absorbance of formazan measured at 590 nm in the test (Acells+test compound), control (Auntreated cells) or blank (Ablank) wells. Each concentration of test compound was evaluated on 3 separate occasions. […] The MTT assay was also carried out on Hepa1c1c7 cells for the purpose of determining cytotoxicity of test compounds. The same procedure was adopted except that the incubation period of compound with cells was 48 h, instead of 72 h.

[1] = system: MCF7 (human breast cancer cell line); experiment: Antiproliferative MTT assay, MCF7; format: cell-based; conditions: 72 h incubation, mean ± SD, n = 3, read-out: IC50 MCF-7
Procedure: as §1, §2, §3
The compounds were initially screened at a fixed concentration of 10 μM on the human cancer cell lines HCT116 and MCF7 cells.

HuH7 = experiment: cells; format: cell-based, human; conditions: for IC50 / viability at 10 µM: Homo sapiens; for IC50: Huh-7, 72 h, read-out: IC50 HuH7; for viability at 10 µM: Huh-7, 72 h, vs vehicle-treated controls, read-out: Percentage viability HuH7; for SR(HuH7/THLE2) safety ratio: percentage viability at 10 μM normalized with THLE2
Procedure: (§4) Cells were plated at 5000-7000 cells/per well and incubated for 24 h before treatment. […] Cell Titer-Glo (Promega, Madison, Wis.) assay was performed according to manufacturer's instruction with luminescence detected on SpectraMax M5 (Molecular Devices, Sunnyvale, Calif.). Data was expressed as percentage of viability vs. vehicle-treated controls.
(§5) The anti-cancer potential of these compounds against HCC were tested using a phenotypic assay where compounds were screened over 100-fold concentration range (0.1 to 10 μM) using two representative liver cancer cell lines, HepG2 and HuH7. Additionally, THLE2 was employed as normal hepatocyte cell line to differentiate anti-cancer potential from non-specific cytotoxicities.
(§6) Cell viability assay shown in FIG. 2 was analyzed by Prism5 for the determination of respective IC50 values.
(§7) Cell viability was determined as described previous in Table 7. Percentage viability at 10 μM treatments was determined and safety ratios were calculated by normalizing survival in HCC cell lines to THLE2.

HepG2 = experiment: cells; format: cell-based, human; conditions: for IC50 / viability at 10 µM: Homo sapiens; for IC50: HepG2, 72 h, read-out: IC50 HepG2; for viability at 10 µM: HepG2, 72 h, vs vehicle-treated controls, read-out: Percentage viability HepG2; for SR(HepG2/THLE2) safety ratio: percentage viability at 10 μM normalized with THLE2
Procedure: as §4, §5, §6, §7

[2] = HCT 116 cells released from G1 Block, 15 μM
[3] = HCT 116 cells released from G2 Block, 15 μM
[4] = HCT 116 cells released from G2 Block, 2.5 μM
[5] = HCT 116 cells released from G1 Block, 5 μM
[6] = HCT 116 cells released from G2 Block, 5 μM

Row | Structure (SMILES) | Proportion of cells in G1 (HCT116 cells; [2]) [%] | Proportion of cells in G2/M (HCT116 cells; [2]) [%] | Proportion of cells in S (HCT116 cells; [2]) [%] | Proportion of cells in Sub-G1 (HCT116 cells; [2]) [%] | Proportion of cells in G1 (HCT116 cells; [3]) [%] | Proportion of cells in G2/M (HCT116 cells; [3]) [%] | Proportion of cells in S (HCT116 cells; [3]) [%] | Proportion of cells in Sub-G1 (HCT116 cells; [3]) [%] | type of cell cycle arrest caused (HCT116 cells) | NQO1 induction ratio (NQO1; 0.05 μM, read off from plot) | NQO1/CYP1A1 Quotient (NQO1; both ratios at 0.05 μM) | IC50 (Hepa1c1c7 cells) [µM] | IC50 [1] [µM] | melting point [°C] | IC50 (HuH7) [µM] | viability at 10 µM (HuH7) [%] | SR(HuH7/THLE2) safety ratio (HuH7) | IC50 (HepG2) [µM] | viability at 10 µM (HepG2) [%] | SR(HepG2/THLE2) safety ratio (HepG2) | further results
1 | O=C1Nc2cc(Cl)ccc2/C1=C\c1cccc(C(F)(F)F)c1 [Compound 47, (E)-6-Chloro-3-(3-(trifluoromethyl)benzylidene)indolin-2-one] | 65.55 | 15.13 | 7.10 | 12.39 | 53.47 | 28.39 | 8.05 | 10.62 | G1 arrest | 5.20 | 2.17 | 1.1 | 3.8 ± 0.3 | 204 to 207 | 0.5 | 3.3 ± 0.2 | 21.76 | 0.6 | 1.1 ± 0.09 | 65.27 | 
2 | O=C1Nc2cc(F)ccc2/C1=C\c1cccc(C(F)(F)F)c1 [Compound 46, (E)-6-Fluoro-3-(3-(trifluoromethyl)benzylidene)indolin-2-one] | 64.93 | 14.58 | 8.04 | 12.68 | 64.15 | 25.00 | 8.82 | 2.49 | G1 arrest | 3.31 | 2.69 | 2.2 | 8.4 ± 0.3 | 132 to 135 | 1.1 | 11.3 ± 1 | 6.39 | 0.4 | 4.2 ± 0.3 | 17.19 | IC50 ([1]; Homo sapiens, MCF7, 72 h): < 10 µM
3 | COc1cccc(/C=C2/C(=O)Nc3cc(OC)ccc32)c1 [Compound 42, (E)-6-Methoxy-3-(3-methoxybenzylidene)indolin-2-one] |  |  |  |  |  |  |  |  | G2 arrest |  |  | 9.8 | 1.2 ± 0.4 | 161 to 163 | 4 | 49.2 ± 4 | 0.79 | 2.2 | 20.7 ± 2 | 1.89 | Proportion of cells in G1 (HCT116 cells; [4]): 26.01%; Proportion of cells in G2/M (HCT116 cells; [4]): 43.57%; Proportion of cells in S (HCT116 cells; [4]): 15.36%; Proportion of cells in Sub-G1 (HCT116 cells; [4]): 30.54%; NQO1 induction ratio (NQO1; 0.5 μM, read off from plot): 3.08; NQO1/CYP1A1 Quotient (NQO1; both ratios at 0.5 μM): 2.72
4 | COc1ccc2c(c1)NC(=O)/C2=C/c1ccc(OC)c(O)c1 [Compound 45, (E)-3-(3-Hydroxy-4-methoxybenzylidene)-6-methoxyindolin-2-one] | 17.49 | 56.49 | 21.13 | 5.26 | 26.01 | 43.57 | 15.36 | 15.54 | G2 arrest |  |  | 9.8 | 3.7 ± 0.3 | 184 to 186 | 8 | 46.6 ± 1.8 | 1.54 | 1.4 | 19.9 ± 1.4 | 3.61 | NQO1 induction ratio (NQO1; 1 μM, read off from plot of degree of induction versus concentration): 4.34; NQO1/CYP1A1 Quotient (NQO1; both ratios at 1 μM): 4.13
5 | COc1ccc2c(c1)NC(=O)/C2=C/c1cccc(C(F)(F)F)c1 [Compound 48, (E)-6-Methoxy-3-(3-(trifluoromethyl)benzylidene)indolin-2-one] |  |  |  |  |  |  |  |  | G2 arrest |  |  | 2.6 | 1.9 ± 0.5 | 157 to 160 | 2.3 | 27.3 ± 0.5 | 1.27 | 0.4 | 14.5 ± 1.3 | 2.40 | Proportion of cells in G1 (HCT116 cells; [5]): 17.50%; Proportion of cells in G2/M (HCT116 cells; [5]): 59.16%; Proportion of cells in S (HCT116 cells; [5]): 19.12%; Proportion of cells in Sub-G1 (HCT116 cells; [5]): 4.39%; Proportion of cells in G1 (HCT116 cells; [6]): 30.55%; Proportion of cells in G2/M (HCT116 cells; [6]): 31.58%; Proportion of cells in S (HCT116 cells; [6]): 17.96%; Proportion of cells in Sub-G1 (HCT116 cells; [6]): 20.69%; NQO1 induction ratio (NQO1; 0.5 μM, read off from plot): 4.22; NQO1/CYP1A1 Quotient (NQO1; both ratios at 0.5 μM): 3.10
